Several values for one entry are separate records, joined by “and”; a condition that tells them apart may be missing. Identical values can stand only once. A value given as a limit tells only on which side of the number the result lay.

The results in this text go back to patent publication US20080274104A1, “Targeting a Secreted Pro-Apoptotic Factor for Cancer Therapeutics” (priority 2005, published 2008).

For data set [1], the system named is NGAL expression in SKBr3 cell line. Nature of the data set: NGAL expression in breast cancer cell line. Type of data set: cell-based, human.
Text: Several breast cancer cell lines were examined for NGAL expression.
The next data set deals with C3H/HeJ mice. The data set is described as follows: C3H/HeJ mouse leukemia model injected with BCR-ABL+ 32D cells. Type of data set: in vivo. The conditions noted are these: individual mouse. The procedure: Therefore, the present inventors wanted to determine whether the affects of anti-sense 24p3 expression in leukemia cells would produce the same effects as in the NOD/scid mouse. In these experiments, 10e6 BCR-ABL+32D cells were injected iv into 8-week old C3H/HeJ mice. Leukemia cells expressed either GFP or anti-sense 24p3 RNA or siRNA for 24p3. The GFP expressing leukemia cells induced a vigorous leukemia involving marrow, spleen, blood and liver (Table 2). Expression of anti-sense 24p3 in leukemia cells reduced the level of invasion in marrow and the spleen but not the liver. Importantly, these mice developed a vigorous ascites tumor growth of GFP+ cells, which was not observed in the GFP vector expressing leukemia cells. […]

A further data set relates to suitable targets cells. Nature of the data set: Apoptosis induction with purified 24p3/NGAL. The conditions noted are these: GST-bacterial method protein. The data set is classed as cell-based. The source says: These findings indicate that the Bcr-Abl oncoprotein in addition to its oncogenic effects also induces secretion of an apoptotic factor (24p3/NGAL) that causes suppression of normal hematopoiesis. […] Detailed structural analysis has shown that NGAL is an iron binding protein, and that the ligand for NGAL is a catecholate-type siderophore (Goetz et al., 2002). Whether the siderophore binding function is related to 24p3/NGAL's ability to induce apoptosis is not known. In specific embodiments, the apoptotic activity of 24p3/NGAL may require either post-translational modification in eukaryotic cells or formation of a complex with one or more factors. […] Local suppression of normal hematopoiesis by 24p3/NGAL secreted by leukemia cells would allow the leukemic clone to more readily compete, survive, infiltrate and proliferate in normal marrow and the spleen tissue environment. […] Thus, as little as one pluripotent stem cell that has acquired BCR-ABL expression by forming the Philadelphia chromosome could survive and compete in the normally active marrow environment because of its ability to secrete a cell death factor (and possibly other factors; Eaves et al., 1998; Olofsson and Olsson, 1980; Olofsson and Olsson, 1980; Skold et al., 1999) to which it is resistant. The ensuing cell death in the surrounding marrow cells would facilitate expansion of the leukemic clone in the normal marrow. […]

As to `Cc1ccc(S(=O)(=O)/C=C/C#N)cc1` [BAY11-7082], the NGAL expression result in data set [1] is given as “strongly inhibited”.

Take “siRNA #4: small hairpin RNA against 24p3 driven by H1 promoter, SEQ ID NO:1 (DNA GGCAGCTTTACGATGTACATTCAAGAGATGTACATCGTAAAGCTGCCTTTTTTCCAAT; expressed or natural sequence)”: in the data set with C3H/HeJ mice, the Ascites result is listed as “Yes” and the Solid tumor result is recorded as “Yes”. Also, in the data set on C3H/HeJ mice (listed as 32Dp210 siRNA), the “GFP positive cells, Ascites” value was 90% (2×) and 80% and 100% (2×); the “GFP positive cells, BM” value is <1% and 5% (3×) and No; the “GFP positive cells, Liver” value is 20% and 50% and 40% and 10% and 25%; the “GFP positive cells, PB” value was 50% and <1% and 20%. Also, in the data set on C3H/HeJ mice (listed as 32Dp210 siRNA), the “GFP positive cells, Spleen” value is 5% and 25% and <1% and No and 20%; the “GFP positive cells, Tumor” value was 40% and 70%; the Spleen wt is 160 mg and 110 mg and 40 mg and 90 mg and 130 mg.

B1: purified 24p3/NGAL: purified 24p3/NGAL lipocalin protein made by GST-bacterial method (protein, UniProt P11672 21-200, looked up)
Neutrophil …: QDSTQNLIPAPSLLTVPLQPDFRSDQFRGRWYVVGLAGNAVQKKTEGSFTMYSTIYELQENNSYNVTSILVRDQDQGCRYWIRTFVPSSRAGQFTLGNMHRYPQVQSYNVQVATTDYNQFAMVFFRKTSENKQYFKITLYGRTKELSPELKERFTRFAKSLGLKDDNIIFSVPTDQCIDN
As to B1, the apoptosis induction result in the data set with suitable targets cells is given as “unable to induce apoptosis”.
